Assays:
Type in all cases: in vivo
[1] = test system: blackgrass (Alopecurus myosuroides); assay: Test A postemergence, blackgrass; settings: Postemergence; for Blackgrass plant response rating: 500 g ai/ha, visual injury vs untreated controls after approx. 10 days
How it was run: (§1)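 After sowing into a sand-amended loam, pots for the preemergence test were treated by spraying directly onto soil. In parallel, seedlings at the one- to two-leaf stage and 2 to 10 cm tall were treated postemergence with the identical surfactant-containing formulation.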

[2] = test system: Ryegrass, Italian (Italian ryegrass, Lolium multiflorum); assay: Test A preemergence, Ryegrass, Italian; settings: Preemergence; for Plant response rating, Ryegrass, Italian: 0 to 100 scale (0 no effect, 100 complete control); for Ryegrass, Italian plant response rating: 125 g ai/ha, visual injury on 0 to 100 scale (0 no effect, 100 complete control), approximately 10 days
How it was run: as §1

kochia (Bassia scoparia) [3] = assay: Test A postemergence, kochia; settings: Postemergence; for Kochia plant response rating: 500 g ai/ha, visual injury vs untreated controls after approx. 10 days
How it was run: as §1

kochia (Bassia scoparia) [4] = assay: Test A preemergence, kochia; settings: Preemergence; for Plant response rating, Kochia: 0 to 100 scale (0 no effect, 100 complete control); for Kochia plant response rating: 125 g ai/ha, visual injury on 0 to 100 scale (0 no effect, 100 complete control), approximately 10 days
How it was run: as §1

[5] = test system: ragweed (common ragweed, Ambrosia artemisiifolia); assay: Test A preemergence, ragweed; settings: Preemergence; for Plant response rating, Ragweed: 0 to 100 scale (0 no effect, 100 complete control); for Ragweed plant response rating: 125 g ai/ha, visual injury on 0 to 100 scale (0 no effect, 100 complete control), approximately 10 days
How it was run: as §1

[6] = test system: galium (catchweed bedstraw, Galium aparine); assay: Test A postemergence, galium; settings: Postemergence; for Galium plant response rating: 500 g ai/ha, visual injury vs untreated controls after approx. 10 days
How it was run: (§2)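 Whole-plant herbicidal screen in pots of loam blended with sand. Sprays used a surfactant-containing, non-phytotoxic solvent vehicle. Timing was preemergence soil-directed at planting or postemergence at the one- to two-leaf stage (2–10 cm).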

[7] = test system: pigweed (Amaranthus retroflexus); assay: Test A postemergence, pigweed; settings: Postemergence; for Pigweed plant response rating: 500 g ai/ha, visual injury vs untreated controls after approx. 10 days
How it was run: as §1

[8] = test system: barnyardgrass (Echinochloa crus-galli); assay: Test A postemergence, barnyardgrass; settings: Postemergence; for Barnyardgrass plant response rating: 500 g ai/ha, visual injury vs untreated controls after approx. 10 days
How it was run: as §2

[9] = test system: wheat (Triticum aestivum); assay: Test A postemergence, wheat; settings: Postemergence; for Wheat plant response rating: 500 g ai/ha, visual injury vs untreated controls after approx. 10 days
How it was run: as §2

corn (Zea mays) = assay: Test A postemergence, corn; settings: Postemergence; for Corn plant response rating: 500 g ai/ha, visual injury vs untreated controls after approx. 10 days
How it was run: as §1

[10] = test system: barnyardgrass (Echinochloa crus-galli); assay: Test A preemergence, barnyardgrass; settings: Preemergence; for Plant response rating, Barnyardgrass: 0 to 100 scale (0 no effect, 100 complete control); for Barnyardgrass plant response rating: 125 g ai/ha, visual injury on 0 to 100 scale (0 no effect, 100 complete control), approximately 10 days
How it was run: as §1

[11] = test system: pigweed (Amaranthus retroflexus); assay: Test A preemergence, pigweed; settings: for Plant response rating, Pigweed: 0 to 100 scale (0 no effect, 100 complete control); for Pigweed plant response rating: 125 g ai/ha, visual injury on 0 to 100 scale (0 no effect, 100 complete control), approximately 10 days
How it was run: as §2

[12] = test system: Foxtail, Giant (giant foxtail, Setaria faberi); assay: Test A preemergence, Foxtail, Giant; settings: Preemergence; for Plant response rating, Foxtail, Giant: 0 to 100 scale (0 no effect, 100 complete control); for Foxtail, Giant plant response rating: 125 g ai/ha, visual injury on 0 to 100 scale (0 no effect, 100 complete control), approximately 10 days
How it was run: as §1

[13] = test system: ragweed (common ragweed, Ambrosia artemisiifolia); assay: Test A postemergence, ragweed; settings: Postemergence; for Ragweed plant response rating: 500 g ai/ha, visual injury vs untreated controls after approx. 10 days
How it was run: as §1

[14] = test system: Ryegrass, Italian (Italian ryegrass, Lolium multiflorum); assay: Test A postemergence, Ryegrass, Italian; settings: Postemergence; for Ryegrass, Italian plant response rating: 500 g ai/ha, visual injury vs untreated controls after approx. 10 days
How it was run: as §1

[15] = test system: Foxtail, Giant (giant foxtail, Setaria faberi); assay: Test A postemergence, Foxtail, Giant; settings: Postemergence; for Foxtail, Giant plant response rating: 500 g ai/ha, visual injury vs untreated controls after approx. 10 days
How it was run: as §1

[16] = 31 g ai/ha, visual injury on 0 to 100 scale (0 no effect, 100 complete control), approx. 10 days
[17] = 125 g ai/ha, 0 to 100 scale (0 no effect, 100 complete control)
[18] = 31 g ai/ha, visual injury, approx. 10 days
[19] = 0 to 100 scale (0 no effect, 100 complete control)

| SMILES | Plant response rating, Blackgrass [1, 16] | Plant response rating, Blackgrass [1, 17] | Plant response rating, Ryegrass, Italian [2, 18] | Ryegrass, Italian plant response rating [2] | Plant response rating, Kochia (kochia (Bassia scoparia) [3]; [16]) | Plant response rating, Kochia (kochia (Bassia scoparia) [3]; [17]) | Plant response rating, Kochia (kochia (Bassia scoparia) [4]; [18]) | Kochia plant response rating (kochia (Bassia scoparia) [4]) | Ragweed plant response rating [5] | Plant response rating, Galium [6, 17] | Plant response rating, Pigweed [7, 17] | Plant response rating, Barnyardgrass [8, 17] | Plant response rating, Wheat [9, 17] | Plant response rating, Corn (corn (Zea mays); [17]) | Barnyardgrass plant response rating [10] | Pigweed plant response rating [11] | Foxtail, Giant plant response rating [12] | Plant response rating, Ragweed [13, 17] | Plant response rating, Ryegrass, Italian [14, 17] | Plant response rating, Foxtail, Giant [15, 17] | further results |
| --- | --- | --- | --- | --- | --- | --- | --- | --- | --- | --- | --- | --- | --- | --- | --- | --- | --- | --- | --- | --- | --- |
| Cc1cc(C)c(N2CC3(CCOCC3)OC2=O)cc1NS(=O)(=O)C(F)(F)F [Compound 156] | 0 | 40 | 50 | 70 | 40 | 70 | 30 | 50 | 90 | 100 | 90 | 90 | 40 | 20 | 100 | 100 | 100 | 90 | 10 | 70 | Plant response rating, Ragweed [5, 18]: 60; Plant response rating, Galium [6, 16]: 100; Plant response rating, Pigweed [7, 16]: 60; Plant response rating, Barnyardgrass [8, 16]: 90; Plant response rating, Wheat [9, 16]: 30; Plant response rating, Corn (corn (Zea mays); [16]): 0; Plant response rating, Barnyardgrass [10, 18]: 70; Plant response rating, Pigweed [11, 18]: 80; Plant response rating, Foxtail, Giant [12, 18]: 50; Plant response rating, Ragweed [13, 16]: 90; Plant response rating, Ryegrass, Italian [14, 16]: 0; Plant response rating, Foxtail, Giant [15, 16]: 30 |
| Cc1cc(C)c(N(S(=O)(=O)C(F)(F)F)S(=O)(=O)C(F)(F)F)cc1N1CC2(CCOCC2)OC1=O [Compound 157] | 30 | 30 | 40 | 60 | 10 | 70 | 50 | 90 | 90 | 100 | 100 | 60 | 0 | 20 | 100 | 100 | 100 | 90 | 30 | 30 | Plant response rating, Ragweed [5, 18]: 40; Plant response rating, Galium [6, 16]: 90; Plant response rating, Pigweed [7, 16]: 90; Plant response rating, Barnyardgrass [8, 16]: 20; Plant response rating, Wheat [9, 16]: 0; Plant response rating, Corn (corn (Zea mays); [16]): 20; Plant response rating, Barnyardgrass [10, 18]: 30; Plant response rating, Pigweed [11, 18]: 100; Plant response rating, Foxtail, Giant [12, 18]: 80; Plant response rating, Ragweed [13, 16]: 70; Plant response rating, Ryegrass, Italian [14, 16]: 0; Plant response rating, Foxtail, Giant [15, 16]: 10 |
| Cc1cc(C)c(N(S(=O)(=O)C(F)(F)F)S(=O)(=O)C(F)(F)F)cc1C1=NOC2(CCCCCC2)C1 [Compound 158] | – | 20 | – | 30 | – | 20 | – | 70 | 30 | 70 | 30 | 0 | 0 | 0 | 30 | 50 | 90 | 10 | 0 | 0 | Blackgrass plant response rating [1, 19]: 0; Plant response rating, Ryegrass, Italian ([2]; 500 g ai/ha): 100; Kochia plant response rating (kochia (Bassia scoparia) [3]; [19]): 30; Plant response rating, Kochia (kochia (Bassia scoparia) [4]; 500 g ai/ha): 80; Plant response rating, Ragweed ([5]; 500 g ai/ha): 40; Galium plant response rating [6, 19]: 90; Pigweed plant response rating [7, 19]: 80; Barnyardgrass plant response rating [8, 19]: 20; Wheat plant response rating [9, 19]: 0; Corn plant response rating (corn (Zea mays); [19]): 20; Plant response rating, Barnyardgrass ([10]; 500 g ai/ha): 100; Plant response rating, Pigweed ([11]; 500 g ai/ha): 100; Plant response rating, Foxtail, Giant ([12]; 500 g ai/ha): 100; Ragweed plant response rating [13, 19]: 20; Ryegrass, Italian plant response rating [14, 19]: 0; Foxtail, Giant plant response rating [15, 19]: 20 |
| Cc1cc(C)c(C(=O)N2CCCOCC2)cc1NS(=O)(=O)C(F)(F)F [Compound 160] | – | 0 | – | 50 | – | 10 | – | 20 | 10 | 80 | 70 | 30 | 0 | 0 | 80 | 90 | 90 | 70 | 0 | 0 | Blackgrass plant response rating [1, 19]: 10; Plant response rating, Ryegrass, Italian ([2]; 500 g ai/ha): 60; Kochia plant response rating (kochia (Bassia scoparia) [3]; [19]): 30; Plant response rating, Kochia (kochia (Bassia scoparia) [4]; 500 g ai/ha): 90; Plant response rating, Ragweed ([5]; 500 g ai/ha): 90; Galium plant response rating [6, 19]: 90; Pigweed plant response rating [7, 19]: 90; Barnyardgrass plant response rating [8, 19]: 80; Wheat plant response rating [9, 19]: 20; Corn plant response rating (corn (Zea mays); [19]): 10; Plant response rating, Barnyardgrass ([10]; 500 g ai/ha): 100; Plant response rating, Pigweed ([11]; 500 g ai/ha): 100; Plant response rating, Foxtail, Giant ([12]; 500 g ai/ha): 100; Ragweed plant response rating [13, 19]: 80; Ryegrass, Italian plant response rating [14, 19]: 0; Foxtail, Giant plant response rating [15, 19]: 60 |
| Cc1cc(C)c(N(S(=O)(=O)C(F)(F)F)S(=O)(=O)C(F)(F)F)cc1C(=O)N1CCC(C#N)CC1 [Compound 161] | 0 | 0 | 70 | 100 | 10 | 50 | 30 | 90 | 90 | 90 | 80 | 80 | 0 | 50 | 100 | 100 | 80 | 70 | 20 | 20 | Plant response rating, Ragweed [5, 18]: 90; Plant response rating, Galium [6, 16]: 30; Plant response rating, Pigweed [7, 16]: 70; Plant response rating, Barnyardgrass [8, 16]: 40; Plant response rating, Wheat [9, 16]: 0; Plant response rating, Corn (corn (Zea mays); [16]): 10; Plant response rating, Barnyardgrass [10, 18]: 20; Plant response rating, Pigweed [11, 18]: 70; Plant response rating, Foxtail, Giant [12, 18]: 40; Plant response rating, Ragweed [13, 16]: 40; Plant response rating, Ryegrass, Italian [14, 16]: 20; Plant response rating, Foxtail, Giant [15, 16]: 0 |

Reference: US20230278972A1, “SUBSTITUTED HALOALKYL SULFONANILIDE HERBICIDES” (FMC Corporation, priority 2020, published 2023)
